One molecule from patent US10093563B2, “Method for making chelating base product used in water-based systems” (Earth Science Laboratories, priority 2015, dated 2018) can be followed below.

Molecules are shown by their SMILES.

The experiment deals with Cotton plants (Gossypium hirsutum L.). The experiment can be described thus: foliar zinc micronutrient delivery to cotton plants. The format is in vivo. To be noted: for Carotenoids / Chlorophylls / Electron Transport Rate / Membrane Leakage: cotton leaf. An excerpt: An illustrative example of micronutrient delivery is the delivery of zinc (Zn) complexed to the chelant detailed herein to growing plants via foliar application. In this example, the experiment design was a Randomized Complete Design of 4 treatments of 10 replications for each of five parameters: (1) total chlorophyll by measuring fluorescence, (2) total carotenoids by measuring absorbance following organic solvent extraction, (3) electron transport rate by measuring light absorption and fluorometry, (4) membrane leakage by measuring change in electrolyte concentrations, and (5) leaf tissue concentrations of zinc by digesting samples in nitric acid followed by atomic absorption spectrophotometry. Leaf samples were collected at weekly intervals after squaring. Cotton plants (Gossypium hirsutum L.) were grown in a climate controlled chamber on a 14/10 hour, 30/20° C. diurnal cycle, respectively. Individual plants were grown in 48, 3 liter pots containing nutrient deficient potting soil. Plants received identical treatment for nutrition and growth management until squaring. At squaring, the first round of measurements were made and treatments sprayed via a CO2 backpack sprayer with plants arranged in rows. Sprays were allowed to dry before returning to the climate controlled chamber to minimize cross contamination of treatments due to foliar contact. Plants were then grown for an additional two to three weeks with nutrients being supplied via zinc-free Hoagland's solution without added Zn for treatments: ESL-Zn (base product fluid solution), Zinc Sulfate, and Low Zinc. The elemental composition of Hoagland's solution is as follows: N 210 mg/L, K 235 mg/L, Ca 200 mg/L, P 31 mg/L, S 64 mg/L, Mg 48 mg/L, B 0.5 mg/L, Fe 1 to 5 mg/L, Mn 0.5 mg/L, Zn 0.05 mg/L, Cu 0.02 mg/L, and Mo 0.01 mg/L. The four treatments and descriptions were (1) “Control” (no foliar spray addition of Zn), (2) “Low Zn” (No foliar spray addition and the Zn concentration of the Hoagland's solution was reduced to 0.025 mg/L, (3) “ZnSO4” (Foliar spray equivalent of 1% solution [e.g., 8 lbs. of 36% ZnSO4 in 100 gallons H2O] at 15 gallons/acre, and (4) “ESL-Zn” (Foliar spray equivalent of 1% solution [e.g., 8 lbs. of 36% ZnSO4 in 100 gallons H2O] at 15 gallons/acre).

The mark [1] stands for this setting: week 1 (at squaring, measured before foliar spray).
[2] abbreviates: week 2, foliar spray equivalent of 1% solution at 15 gallons/acre.
The mark [3] stands for this setting: week 3, foliar spray equivalent of 1% solution at 15 gallons/acre.

`O=S(=O)([O-])[O-].[Zn+2]` [ZnSO4, Zinc Sulfate]: under setting [1], the Carotenoids is recorded as 1.713 μg carotenoids/mg dry weight, the Chlorophylls is 11.88 μg pigments/mg dry weight, the “Electron Transport Rate” value was determined as 71 μmol electrons m^−2 s^− and the “Membrane Leakage” value amounted to 34.68%. Besides, the “Zn (leaf tissue concentration)” value under setting [1] is listed as 27.46 ppm or mg/L. Besides, under setting [2], the Carotenoids is 2.322 μg carotenoids/mg dry weight, the Chlorophylls was determined as 12.67 μg pigments/mg dry weight, the “Electron Transport Rate” value came to 70 μmol electrons m^−2 s^− and the “Membrane Leakage” value is 28.12%. Further, under setting [2], the “Zn (leaf tissue concentration)” value is 61.29 ppm or mg/L. For the same molecule, under setting [3], the Carotenoids is given as 1.559 μg carotenoids/mg dry weight, the Chlorophylls is reported as 10.72 μg pigments/mg dry weight, the “Electron Transport Rate” value is listed as 68 μmol electrons m^−2 s^− and the “Membrane Leakage” value is given as 27.06%. Moreover, the “Zn (leaf tissue concentration)” value under setting [3] is 27.52 ppm or mg/L.
